Bridge positions count the residues as written; N and C are the ends. Square brackets hold non-standard residues; d marks the D form. Peptide text beside a SMILES is read from it. * marks the point of attachment. X1 = CC[C@H](C)CCCCC(=O)*; Dab = NCC[C@H](N)C(=O)O
What was measured:
S. aureus (ATCC6538) = assay: Minimum inhibitory concentration; format: cell-based; conditions: text summary of Table S1
E. faecalis (OG1X) = assay: Minimum inhibitory concentration; format: cell-based; conditions: text summary of Table S1

Compound | activity against S. aureus (in words) (S. aureus (ATCC6538)) | activity against E. faecalis (in words) (E. faecalis (OG1X))
CCCCCCCCCC(=O)N[C@@H](Cc1c[nH]c2ccccc12)C(=O)N[C@H](CC(N)=O)C(=O)N[C@@H](CC(=O)O)C(=O)N[C@@H]1C(=O)NCC(=O)N[C@@H](CCCN)C(=O)N[C@@H](CC(=O)O)C(=O)N[C@H](C)C(=O)N[C@@H](CC(=O)O)C(=O)NCC(=O)N[C@H](CO)C(=O)N[C@@H]([C@H](C)CC(=O)O)C(=O)N[C@@H](CC(=O)c2ccccc2N)C(=O)O[C@@H]1C [daptomycin] | appreciable activity | tolerant
CC[C@H](C)CCCCC(=O)N[C@@H](CCN)C(=O)N[C@H](C(=O)N[C@@H](CCN)C(=O)N[C@H]1CCNC(=O)[C@H]([C@@H](C)O)NC(=O)[C@H](CCN)NC(=O)[C@H](CCN)NC(=O)[C@H](CC(C)C)NC(=O)[C@@H](Cc2ccccc2)NC(=O)[C@H](CCN)NC1=O)[C@@H](C)O [polymyxin B] (X1-[Dab]T[Dab][Dab][Dab][dF]L[Dab][Dab]T; lactam 4-C (inferred); N-terminus assumed) |  | tolerant

From PMC5369539 (Chemical Science, 2016)
